The subject of this test is 885724-159-R-J1-PDC KRAS PDC multicell spheroid viability. The test can be described thus: Anticancer human tumor 885724-159-R-J1-PDC patient-derived pancreatic adenocarcinoma cell line growth inhibition [KRAS2]. The settings on record: for viability, T/C: stronger effect = lower value. The source says:
Multicellular complex tumor spheroid response to RAS pathway inhibitors in combination with a targeted agents in patient-derived cell lines with oncogenic KRAS variants from multiple cancer types
A high-throughput screen of multi-cell type tumor spheroids was designed to identify active combinations of targeted small molecules and KRAS pathway inhibitors. Complex spheroids include a stromal component modeled by human endothelial cells (HUVEC) and fibroblasts modeled by human mesenchymal stem cells (MSCs). The concentration ranges selected for each drug and investigational agent were based upon clinically achievable concentrations if the clinical Cmax of the agent was known.
Compounds. The drugs and investigational agents: BI-3406 (NSC825286), BAY-293 (NSC824723), batoprotafib (TNO155; NSC825523), sotorasib (AMG 510; NSC818433), MRTX1257 (NSC819558), elimusertib (BAY 1895344; NSC800525), molibresib (GSK525762; NSC774829), temuterkib (LY3214996; NSC803410), venetoclax (NSC766270), alisertib (NSC759677), olaparib (NSC753686), talazoparib (NSC767125), erdafitinib (NSC781556), ipatasertib (NSC767898), cabozantinib (NSC761068), nintedanib (NSC756659), abemaciclib (NSC768073), docetaxel (NSC628503), trametinib (NSC758246), and sapanisertib (NSC764658) were obtained from the National Cancer Institute (NCI) Developmental Therapeutics Program Chemical Repository. The FDA-approved anticancer drug set is available from the Developmental Therapeutics Program. […] The stock solutions were prepared in dimethyl sulfoxide (DMSO, Sigma-Aldrich, St. Louis, MO, cat. D2650) at 800-fold the tested concentration and stored at -70 degrees C prior to their use. All drugs and investigational agents were tested over a range starting from a high concentration at or near the clinical Cmax and decreasing in half-log increments. If the clinical Cmax for an agent had not been determined, the highest concentration tested was 10 microM.
Cell Culture. All cells were maintained in an incubator at 37 degrees C and 5% CO2 with 95% humidity. The PDC lines were cultured according to standard operating procedures established by the NCI PDMR (https://pdmr.cancer.gov/sops/default.htm). Briefly, all PDCs were thawed and cultured in Matrigel-coated flasks prepared with a working solution of 1X Ham's F-12 nutrient mix, without supplementation (Invitrogen, Waltham, MA, cat. 11765054), 100 U/mL penicillin-streptomycin (Invitrogen, cat. 15140122), and 2.5% Matrigel (Corning Inc., Corning, NY, cat. 354248) for the first three passages. All PDCs were cultured in complete DMEM/F-12 media containing advanced DMEM/F-12 (Invitrogen, cat. 12634028), 4.9% defined fetal bovine serum, heat inactivated (HyClone Laboratories Inc., Logan, UT, cat. SH30070.03HI), 389 ng/mL hydrocortisone (Sigma-Aldrich, cat. H4001), 9.7 ng/mL human EGF recombinant protein (Invitrogen, cat. PHG0313), 23.4 microg/mL adenine (Sigma-Aldrich, cat. A2786), 97.3 U/mL penicillin-streptomycin (Invitrogen, cat. 15140122), 1.9 mM L-glutamine (Invitrogen, cat. 25030081), and 9.7 microM Y-27632 dihydrochloride (Tocris Bioscience, Bristol, United Kingdom, cat. 1254). The PDCs were cultured in complete DMEM/F12 media without 9.7 microM Y-27632 dihydrochloride for at least two passages prior to the screen. The established cell line HOP-62 was cultured in RPMI 1640 medium, HEPES (Invitrogen, cat. 22400105) with 10% defined fetal bovine serum (HyClone Laboratories Inc., cat. SH30070.03) and 2 mM L-glutamine (Invitrogen, cat. 25030081). The pooled donor HUVEC were cultured in endothelial cell growth medium 2 (PromoCell, Heidelberg, Germany, cat. C-22011) and the hMSC were cultured in mesenchymal stem cell growth medium 2 (PromoCell, cat. C-28009). For all experiments, HUVEC and hMSC were used at passages </=5, while the malignant cell lines were used at passages </=15. […]

[1] abbreviates: compound alone, run of 08/19/2021.
[2] abbreviates: compound alone, run of 08/26/2021.
[3] abbreviates: compound alone, run of 09/02/2021.

SMILES strings stand for the structures. “And” between values parts separate entries of the source, which are not always exact repeats. Identical values can stand only once. Bounds are passed on as bounds.
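Note: spheroids exposed to agents for 7 days before readout.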

In general, viability, T/C refers to the ratio of treated to control. A word on the IC50: it is the concentration needed to halve the response being measured. In the case of `C=CC(=O)N1CCN(c2nc(=O)n(-c3c(C)ccnc3C(C)C)c3nc(-c4c(O)cccc4F)c(F)cc23)C(C)C1` (stereo not drawn), the viability, T/C by setting is: (compound 0.1 µM) 107% [middle of 15 runs]; (compound 0.316 µM) 107% [middle of 15 runs]; (compound 1 µM) 106% [middle of 15 runs]. Further, the IC50 is, setting by setting: under setting [1], more than 10 µM; under setting [2], more than 10 µM; under setting [3], more than 10 µM.

Take `CC(C)NCC(C(=O)N1CCN(c2ncnc3c2C(C)CC3O)CC1)c1ccc(Cl)cc1` (stereo not drawn): the viability, T/C was 95.8% [middle of 5 runs] (compound 0.0316 µM); 83.2% [middle of 5 runs] (compound 0.1 µM); 75.3% [middle of 5 runs] (compound 0.316 µM); 75.9% [middle of 5 runs] (compound 1 µM); 84.6% [middle of 5 runs] (compound 3.16 µM); 56.9% [middle of 5 runs] (compound 10 µM). Further, under “curve of compound”, the IC50 is more than 10 µM.

Consider `CNCc1ccccc1-c1csc(C(C)Nc2nc(C)nc3cc(OC)c(OC)cc23)c1` (stereo not drawn), for which the viability, T/C by setting is: (compound 0.1 µM) 101% [middle of 15 runs]; (compound 0.316 µM) 101% [middle of 15 runs]; (compound 10 µM) 0.23% [middle of 13 runs]. Further, the IC50 reads like this: under setting [2], 1.65 µM [middle of 5 runs]; under setting [3], 1.6 µM and 1.72 µM and 1.8 µM.

For `COC(=O)c1ccc2c(C(=Nc3ccc(N(C)C(=O)CN4CCN(C)CC4)cc3)c3ccccc3)c(O)[nH]c2c1`, the viability, T/C was 99.8% [middle of 5 runs] (compound 0.0316 µM); 103% [middle of 5 runs] (compound 0.1 µM); 98.2% [middle of 5 runs] (compound 0.316 µM); 103% [middle of 5 runs] (compound 1 µM); 29.4% [middle of 5 runs] (compound 3.16 µM); 0.61% [middle of 5 runs] (compound 10 µM). Under “curve of compound”, the IC50 is 2.26 µM [middle of 5 runs].

Turning to `COc1cc2nc(C)nc(NC(C)c3cc(N)cc(C(F)(F)F)c3)c2cc1OC1CCOC1` (stereo not drawn), under setting [1], the IC50 was > 10 µM and 8.35 µM and 7.91 µM.

On to `COc1cc2nccc(Oc3ccc(NC(=O)C4(C(=O)Nc5ccc(F)cc5)CC4)cc3)c2cc1OC`, for which the viability, T/C was 111% [middle of 5 runs] (compound 0.0316 µM); 108% [middle of 5 runs] (compound 0.1 µM); 110% [middle of 5 runs] (compound 0.316 µM); 102% [middle of 5 runs] (compound 1 µM); 74.1% [middle of 5 runs] (compound 3.16 µM); 70.5% [middle of 5 runs] (compound 10 µM). In addition, the 50% inhibitory concentration (IC50) (curve of compound) is more than 10 µM.

Turning to `CC(=O)OC12COC1CC(O)C1(C)C(=O)C(O)C3=C(C)C(OC(=O)C(O)C(NC(=O)OC(C)(C)C)c4ccccc4)CC(O)(C(OC(=O)c4ccccc4)C21)C3(C)C` (stereo not drawn) + C=CC(=O)N1CCN(c2nc(=O)n(-c3c(C)ccnc3C(C)C)c3nc(-c4c(O)cccc4F)c(F)cc23)C(C)C1, the IC50 (curve of first compound, second compound 0.1 µM) was more than 3.16 µM; the IC50 (curve of first compound, second compound 0.316 µM) is more than 3.16 µM; the IC50 (curve of first compound, second compound 1 µM) is more than 3.16 µM; the IC50 (curve of first compound, second compound 3.16 µM) was more than 3.16 µM; the IC50 (curve of first compound, second compound 10 µM) was more than 3.16 µM. Besides, the viability, T/C is, setting by setting: (second compound 0.1 µM, first compound 0.01 µM) 91.7%; (second compound 0.1 µM, first compound 0.0316 µM) 104%; (second compound 0.1 µM, first compound 0.1 µM) 95.5%; (second compound 0.1 µM, first compound 0.316 µM) 107%; (second compound 0.1 µM, first compound 1 µM) 110%; (second compound 0.1 µM, first compound 3.16 µM) 112%. In addition, the viability, T/C reads like this: (second compound 0.316 µM, first compound 0.01 µM) 94.6%; (second compound 0.316 µM, first compound 0.0316 µM) 102%; (second compound 0.316 µM, first compound 0.1 µM) 104%; (second compound 0.316 µM, first compound 0.316 µM) 112%; (second compound 0.316 µM, first compound 1 µM) 112%; (second compound 0.316 µM, first compound 3.16 µM) 112%. Moreover, the viability, T/C is, setting by setting: (second compound 1 µM, first compound 0.01 µM) 105%; (second compound 1 µM, first compound 0.0316 µM) 119%; (second compound 1 µM, first compound 0.1 µM) 114%; (second compound 1 µM, first compound 0.316 µM) 103%; (second compound 1 µM, first compound 1 µM) 119%; (second compound 1 µM, first compound 3.16 µM) 125%. The viability, T/C is 99.1% (second compound 3.16 µM, first compound 0.01 µM); 114% (second compound 3.16 µM, first compound 0.0316 µM); 113% (second compound 3.16 µM, first compound 0.1 µM); 112% (second compound 3.16 µM, first compound 0.316 µM); 111% (second compound 3.16 µM, first compound 1 µM); 121% (second compound 3.16 µM, first compound 3.16 µM). Further, the viability, T/C runs as follows: (second compound 10 µM, first compound 0.01 µM) 80.8%; (second compound 10 µM, first compound 0.0316 µM) 84.1%; (second compound 10 µM, first compound 0.1 µM) 87.7%; (second compound 10 µM, first compound 0.316 µM) 86%; (second compound 10 µM, first compound 1 µM) 86.6%; (second compound 10 µM, first compound 3.16 µM) 78.3%.

Values taken from PubChem BioAssay AID1963861 (Molecular Pharmacology Branch, DTP, NCI, 2024).
